Measured values published in patent US20260265298A1, “PEPTIDE SUBSTRATES AND INHIBITORS OF CATHEPSIN B” (The Regents of the University of California, priority 2023, published 2026).
[ ]: non-standard residue; d: D form. The star is where a group is joined. AMC = Cc1cc(=O)oc2cc(N*)ccc12; Nle = CCCC[C@H](N)C(=O)O; Cbz = O=C(OCc1ccccc1)*

Experiments:
Assay type in all cases: biochemical
[1] = biological target: T1, cathepsin B in homogenates of mouse microglia BV2 cells (Mus musculus, UniProt P10605); test: Cathepsin B (CA-074-sensitive) activity in mouse microglia cell homogenates; conditions: for cathepsin B activity detected in cell homogenate: pH 4.6; for monitoring of cathepsin B (CA-074-sensitive) activity in cell homogenate: pH 4.6, 5.5, 7.2
T1 construct: homogenates of human neuroblastoma cell lines, SHSY-5Y and SK-N-MC, and mouse microglia cell line, BV2; endogenous in cells; host or cells: BV2 mouse microglia cells (homogenate; cytosol fraction in the low nutrient stress assay)
T1 sequence (P10605 80-333): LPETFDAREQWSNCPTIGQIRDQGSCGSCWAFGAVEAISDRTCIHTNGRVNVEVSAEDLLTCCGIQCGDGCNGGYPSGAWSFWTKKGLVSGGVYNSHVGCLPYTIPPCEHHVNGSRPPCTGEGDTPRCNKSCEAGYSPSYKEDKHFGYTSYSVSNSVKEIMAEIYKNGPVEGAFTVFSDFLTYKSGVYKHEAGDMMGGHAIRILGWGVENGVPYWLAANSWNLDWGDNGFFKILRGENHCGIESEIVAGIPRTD
Description: (§1) Cathepsin B activity in human neuroblastoma and mouse microglia. Characterization of Z-Nle-Lys-Arg-AMC substrate in proteolytic activity assays for specific cathepsin B activity of cell homogenates (prepared in 0.32 M sucrose) was conducted at 40 mM citrate phosphate pH 4.6, 5.5, and 7.2, 5 mM DTT, 1 mM EDTA, 100 mM NaCl, 1.2% DMSO, and homogenates of human neuroblastoma cell lines, SHSY-5Y and SK-N-MC, and mouse microglia cell line, BV2. A concentration of 6 μM Z-Nle-Lys-Arg-AMC, Z-Arg-Arg-AMC, and Z-Phe-Arg-AMC substrates were used in the proteolytic activity assays. Cell homogenates were diluted 1:10 prior to addition to assays. […] Assays were performed in 96-well plates at room temperature (25° C.) in a total volume of 100 μl with triplicates. Cell homogenates were incubated with CA-074 or inhibitor controls at RT for 30 minutes in the absence of substrate, followed by addition of substrate and incubation at 37° C. Fluorescence was quantified at 15, 30, and 60 minutes after substrate was added, by a Biotek Synergy HTX microplate reader with excitation at 360 nm, and emission at 460 nm, gain 50, top optics and read height at 1 mm. Prism GraphPad software was used to analyze data.

[2] = biological target: T2, cathepsin B in homogenates of human neuroblastoma SHSY-5Y and SK-N-MC cells (Homo sapiens, UniProt P07858); test: Cathepsin B (CA-074-sensitive) activity in human neuroblastoma cell homogenates; conditions: for cathepsin B activity detected in cell homogenate: pH 4.6; for monitoring of cathepsin B (CA-074-sensitive) activity in cell homogenate: pH 4.6, 5.5, 7.2
T2 construct: homogenates of human neuroblastoma cell lines, SHSY-5Y and SK-N-MC, and mouse microglia cell line, BV2; endogenous in cells; host or cells: SH-SY5Y and SK-N-MC human neuroblastoma cell homogenates
Description: as §1

cathepsin L = biological target: T3, cathepsin L (Homo sapiens, UniProt P07711); test: Substrate selectivity: cleavage of AMC substrates by cathepsin L
T3 construct: active cathepsin L (R & D Systems, #952-CY-010); purchased R & D Systems 952-CY-010
T3 sequence (P07711 114-333): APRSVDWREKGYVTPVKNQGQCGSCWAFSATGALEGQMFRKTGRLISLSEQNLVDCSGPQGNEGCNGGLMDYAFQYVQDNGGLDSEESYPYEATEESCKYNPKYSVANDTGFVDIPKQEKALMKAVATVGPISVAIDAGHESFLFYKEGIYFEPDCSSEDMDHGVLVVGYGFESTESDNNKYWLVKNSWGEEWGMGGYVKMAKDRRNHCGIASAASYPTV
Description: [Worded in the source for another target; used here, by the source, with some conditions changed.] (§2) Cathepsin B activity with Z-Arg-Arg-AMC and Z-Phe-Arg-AMC substrates at pH 4.6 and 7.2. Cathepsin B (0.04 ng/μL) activity was assessed with Z-Arg-Arg-AMC and Z-Phe-Arg-AMC substrates (40 μM final concentration) (Table 1) in 40 mM citrate phosphate buffer pH 4.6 or Tris-HCl pH 7.2 in 1 mM EDTA, 100 mM NaCl, and 5 mM DTT with incubation at room temperature (25° C.) in triplicate and AMC fluorescence readings per second (RFU/s) (excitation 360 nm, emission 460 nm) were recorded over a period of 30 min by BioTek Synergy HTX plate reader (Software Version 3.08.01). Enzyme initial velocity was calculated using the highest slope recorded for 10 consecutive fluorescent readings within the initial 30 min. The mean and standard deviation (SD) were determined from triplicates. RFU/s were converted to pmol/min/μg (specific activity) using AMC standard curves. All data were plotted, calculated, and analyzed using GraphPad Prism (Version 9.4.1).
(§3) For evaluation of cathepsin B and cysteine cathepsins for substrate selectivity each cathepsin was incubated with 4 μM substrates consisting of Z-Phe-Arg-AMC. Z-Arg-Arg-AMC, and Z-Nle-Lys-Arg-AMC, activity was monitored in 40 mM citrate phosphate (pH 4.6, pH 5.5 and pH 7.2), 1 mM EDTA, 100 mM NaCl, and 5 mM DTT for cathepsin B (0.04 ng/μL), cathepsin K (0.03 ng/μL), cathepsin L (0.03 ng/μL), cathepsin S (0.14 ng/μL), cathepsin V (0.04 ng/μL), and cathepsin X (0.20 ng ng/μL). Since cathepsin X cannot cleave any of the AMC substrates, MCARPPGFSAFK(Dnp)-OH (R & D Systems #ES005) was used to verify that cathepsin X was active.

cathepsin K = biological target: T4, cathepsin K (Homo sapiens, UniProt P43235); test: Substrate selectivity: cleavage of AMC substrates by cathepsin K
T4 construct: active cathepsin K (Abcam, #ab157067); purchased Abcam ab157067
T4 sequence (P43235 115-329): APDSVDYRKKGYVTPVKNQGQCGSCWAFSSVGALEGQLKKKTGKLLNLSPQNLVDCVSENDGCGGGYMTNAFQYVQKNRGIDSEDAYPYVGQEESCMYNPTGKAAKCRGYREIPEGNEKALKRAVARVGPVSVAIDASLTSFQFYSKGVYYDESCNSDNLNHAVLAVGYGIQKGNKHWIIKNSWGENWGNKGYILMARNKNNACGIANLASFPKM

mouse cathepsin B = biological target: T5, mouse cathepsin B (Mus musculus, UniProt P10605); test: Mouse cathepsin B specific activity with AMC substrates; conditions: pH 4.6, 5.5 and 7.2; 40 μM substrate
T5 construct: purchased R & D Systems 965-CY-010
T5 sequence (P10605 80-333 limits assumed): as the sequence (P10605 80-333) above
Description: FIGS. 11a-11b. […] (FIG. 11a) pH-dependence of mouse cathepsin B activity with Z-Nle-Lys-Arg-AMC compared to Z-Arg-Arg-AMC and Z-Phe-Arg-AMC substrates. Cathepsin B specific activity with the three different substrates (40 μM) were assessed at pH 4.6, 5.5, and 7.2. Data points are shown as the mean+SD (n=3).

human cathepsin B [3] = biological target: T6, human cathepsin B (Homo sapiens, UniProt P07858); test: Cathepsin B activity with fluorogenic Z-peptide-AMC substrates (specific activity, pH profile); conditions: for cleavage by cathepsin B: pH 4.6 and 7.2, 40 μM substrate ('Table 1' comparison)
T6 construct: purchased R & D Systems 953-CY-010
Description: as §2
Analysis of pH-dependent cathepsin B activity with fluorogenic substrates designed from MSPMS data. For comparison of cathepsin B activity at pH 4.6, pH 5.5, and pH 7.2 with multiple fluorogenic substrates, cathepsin B (0.04 ng/μL) was incubated with 40 μM substrates consisting of Z-Lys-Arg-AMC. Z-Phe-Arg-AMC. Z-Arg-Arg-AMC. Z-Gly-Lys-Arg-AMC, Z-Val-Lys-Arg-AMC, Z-Tyr-Lys-Arg-AMC. Z-Phe-Lys-Arg-AMC, Z-Trp-Lys-Arg-AMC, Z-Leu-Lys-Arg-AMC, Z-Ala-Lys-Arg-AMC, Z-Nle-Arg-Arg-AMC, and Z-Nle-Lys-Arg-AMC. AMC product formation (RFU/s) was monitored in 40 mM citrate phosphate, pH 4.6 and pH 7.2, 1 mM EDTA, 100 mM NaCl, and 5 mM DTT was determined from the average of RFU/s triplicates at each pH condition.
For analysis of pH-dependent activity cathepsin B (0.04 ng/μL), proteolytic activity was monitored over the pH range of pH 2.2-9.0 in 40 mM citrate phosphate (pH 2.2 to pH 6.6) and 40 mM Tris-HCl (pH 7.0 to 9.0), 1 mM EDTA, 100 mM NaCl, and 5 mM DTT, with preincubation in each pH buffer for 10 min prior to initiating the assay by addition of Z-Nle-Lys-Arg-AMC, Z-Arg-Arg-AMC, or Z-Phe-Arg-AMC to a final concentration of 40 μM to generate the pH curve data.

cathepsin V = biological target: T7, cathepsin V (Homo sapiens, UniProt O60911); test: Substrate selectivity: cleavage of AMC substrates by cathepsin V
T7 construct: purchased R & D Systems 1080-CY-010
T7 sequence (O60911 114-334): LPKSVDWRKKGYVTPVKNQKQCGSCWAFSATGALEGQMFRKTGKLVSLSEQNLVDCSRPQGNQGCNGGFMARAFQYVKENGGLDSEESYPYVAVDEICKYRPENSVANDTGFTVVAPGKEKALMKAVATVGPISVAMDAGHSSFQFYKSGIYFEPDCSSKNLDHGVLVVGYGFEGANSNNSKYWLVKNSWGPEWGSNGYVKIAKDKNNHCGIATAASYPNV
Description: as §2
as §3, with “For evaluation of cathepsin B and cysteine cathepsins for substrate selectivity each cathepsin was incubated with 4 μM substrates consisting of Z-Phe-Arg-AMC.” left out

cathepsin S = biological target: T8, cathepsin S (Homo sapiens, UniProt P25774); test: Substrate selectivity: cleavage of AMC substrates by cathepsin S
T8 construct: purchased R & D Systems 1183-CY-010
T8 sequence (P25774 115-331): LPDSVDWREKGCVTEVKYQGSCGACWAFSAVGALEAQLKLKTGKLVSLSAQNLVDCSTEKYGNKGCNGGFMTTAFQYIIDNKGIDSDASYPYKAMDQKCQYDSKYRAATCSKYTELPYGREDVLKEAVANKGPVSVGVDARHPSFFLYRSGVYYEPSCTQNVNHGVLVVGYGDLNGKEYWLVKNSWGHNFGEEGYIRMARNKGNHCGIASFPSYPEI
Description: as §2
as §3, with “For evaluation of cathepsin B and cysteine cathepsins for substrate selectivity each cathepsin was incubated with 4 μM substrates consisting of Z-Phe-Arg-AMC.” left out

human cathepsin B [4] = biological target: T6, human cathepsin B; test: Cathepsin B activity with fluorogenic Z-peptide-AMC substrates (specific activity, pH profile); conditions: pH 4.6 and pH 7.2; substrates at 4 μM (FIG. 3)
[5] = CA-074 1 μM, 30 min pre-incubation
[6] = pH 4.6, 5.5 and 7.2 (FIGS. 5a-5c)
[7] = pH 4.6 and 7.2, 40 μM substrate ('Table 1' comparison)

Which results are given for CCCNC(=O)[C@H]1O[C@@H]1C(=O)N[C@H](C(=O)N1CCC[C@H]1C(=O)O)[C@@H](C)CC [CA-074]?
effect on cathepsin B activity in cell homogenate [1, 5]: inhibition; effect on cathepsin B activity in cell homogenate [2, 5]: inhibition

With Cbz-Arg-Arg-{AMC} as the compound, how does the “cleavage by cathepsin L” value (cathepsin L; [6]) read?
The value was “cleaved by cathepsins L and V”.

What about the “cleavage by cathepsin L” value (cathepsin L; [7]) of the same compound?
Its value is “cleaved by cathepsin B and other cysteine cathepsins L, K, S, and V”.

What about the “cleavage by cathepsin K” value (cathepsin K; [7]) of the same compound?
The value was “cleaved by cathepsin B and other cysteine cathepsins L, K, S, and V”.

What about the “mouse cathepsin B specific activity” value (mouse cathepsin B) of the same compound?
Its value is “low”.

What about the “cathepsin B activity detected in cell homogenate” value [1] of the same compound?
The value was “none or little activity”.

And the “monitoring of cathepsin B (CA-074-sensitive) activity in cell homogenate” value (shortened to “monitoring of cathepsin B”) [1]?
Its value is “only low cathepsin B activity”.

And the “cathepsin B activity detected in cell homogenate” value [2]?
The value was “none or little activity”.

What about the “monitoring of cathepsin B” value [2] of the same compound?
The value was “only low cathepsin B activity”.

And the “cleavage by cathepsin B at acidic pH” value (human cathepsin B [3]; pH 4.6, 40 μM substrate)?
Its value is “poor cleavage activity”.

And the “cleavage by cathepsin B” value (human cathepsin B [3])?
The value was “cleaved by cathepsin B and other cysteine cathepsins L, K, S, and V”.

What about the “specific activity at acidic pH as fraction of specific activity at neutral pH” value (human cathepsin B [3]; pH 4.6 vs pH 7.2) of the same compound?
Its value is “one-third”.

And the “cleavage by cathepsin B at neutral pH” value (human cathepsin B [3]; pH 7.2, 40 μM substrate)?
Its value is “readily cleaved”.

And the “cleavage by cathepsin V” value (cathepsin V; [6])?
The value was “cleaved by cathepsins L and V”.

And the “cleavage by cathepsin V” value (cathepsin V; [7])?
Its value is “cleaved by cathepsin B and other cysteine cathepsins L, K, S, and V”.

What about the “cleavage by cathepsin S” value (cathepsin S; [7]) of the same compound?
The value was “cleaved by cathepsin B and other cysteine cathepsins L, K, S, and V”.

For Cbz-Leu-Lys-Arg-{AMC}, which “cathepsin B specific activity compared among substrates” value (human cathepsin B [4]) is on record?
The value was “less activity than Z-Nle-Lys-Arg-AMC”.

With Cbz-Lys-Arg-{AMC} as the compound, how does the “cathepsin B specific activity compared among substrates” value (human cathepsin B [4]) read?
The value was “lower activity than Z-Nle-Lys-Arg-AMC”.

Which “cleavage by cathepsin L” value (cathepsin L; [6]) does the source give for Cbz-Phe-Arg-{AMC} here?
Its value is “cleaved by cathepsin L with greater activity than that for cathepsin B”.

And the “cleavage by cathepsin L” value (cathepsin L; [7])?
The value was “cleaved by cathepsin B and other cysteine cathepsins L, K, S, and V”.

What about the “cleavage by cathepsin K” value (cathepsin K; [6]) of the same compound?
The value was “also cleaved by cathepsins K and V”.

And the “cleavage by cathepsin K” value (cathepsin K; [7])?
Its value is “cleaved by cathepsin B and other cysteine cathepsins L, K, S, and V”.

And the “mouse cathepsin B specific activity” value (mouse cathepsin B)?
The value was “moderate specific activity”.

What about the “monitoring of cathepsin B” value [1] of the same compound?
Its value is “detected cathepsin B as well as other cysteine cathepsin activity”.

And the “monitoring of cathepsin B” value [2]?
The value was “detected cathepsin B as well as other cysteine cathepsin activity”.

And the “cleavage by cathepsin B” value (human cathepsin B [3])?
Its value is “cleaved by cathepsin B and other cysteine cathepsins L, K, S, and V”.

What about the “cleavage by cathepsin V” value (cathepsin V; [6]) of the same compound?
Its value is “also cleaved by cathepsins K and V”.

What about the “cleavage by cathepsin V” value (cathepsin V; [7]) of the same compound?
The value was “cleaved by cathepsin B and other cysteine cathepsins L, K, S, and V”.

What about the “cleavage by cathepsin S” value (cathepsin S; [7]) of the same compound?
Its value is “cleaved by cathepsin B and other cysteine cathepsins L, K, S, and V”.

Which results are given for Cbz-[Nle]-Arg-Arg-{AMC}?
less activity compared to Z-Nle-Lys-Arg-AMC (human cathepsin B [3]; pH 4.6): about 30%; less activity compared to Z-Nle-Lys-Arg-AMC (human cathepsin B [3]; pH 7.2): ~50%

What does the source list for Cbz-[Nle]-Lys-Arg-{AMC}?
cleavage by cathepsin L (cathepsin L; [6]): not cathepsins L. K. S, and V activities; cleavage by cathepsin K (cathepsin K; [6]): not cathepsins L. K. S, and V activities; mouse cathepsin B specific activity (mouse cathepsin B): highest specific activity; cathepsin B activity detected in cell homogenate [1]: robust cathepsin B activity; monitoring of cathepsin B (CA-074-sensitive) activity in cell homogenate [1]: highly sensitive for monitoring cathepsin B activity; cathepsin B activity detected in cell homogenate [2]: robust cathepsin B activity; monitoring of cathepsin B (CA-074-sensitive) activity in cell homogenate [2]: highly sensitive for monitoring cathepsin B activity; pH of maximal activity (human cathepsin B [3]; pH profile pH 2 to 9): 5.5-6.5 pH; cleavage by cathepsin V (cathepsin V; [6]): not cathepsins L. K. S, and V activities; cleavage by cathepsin S (cathepsin S; [6]): not cathepsins L. K. S, and V activities; cathepsin B specific activity compared among substrates (human cathepsin B [4]): higher than all other substrates at both pHs
